Here are results for 17 compounds from PMC8151276, “An Integrated Approach toward NanoBRET Tracers for Analysis of GPCR Ligand Engagement” (Molecules, 2021).

Structures are written as SMILES.

One assay concerns the target T1, FPR1 (Homo sapiens, UniProt P21462).
T1 construct: purchased Promega (in-house HiBiT-GPCR construct library, NanoBRET)
T1 sequence (P21462 1-350): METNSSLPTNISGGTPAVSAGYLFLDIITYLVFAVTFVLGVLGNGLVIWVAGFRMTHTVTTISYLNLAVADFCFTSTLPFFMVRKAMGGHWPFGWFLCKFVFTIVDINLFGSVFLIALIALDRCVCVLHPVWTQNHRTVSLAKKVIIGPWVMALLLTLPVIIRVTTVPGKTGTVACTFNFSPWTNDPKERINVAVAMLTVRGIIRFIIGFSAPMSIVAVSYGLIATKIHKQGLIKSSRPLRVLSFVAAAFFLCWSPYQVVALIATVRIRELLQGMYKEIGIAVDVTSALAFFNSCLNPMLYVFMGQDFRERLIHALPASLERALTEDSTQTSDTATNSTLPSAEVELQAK
As to the kind of experiment: NanoBRET screen HiBiT-FPR1 in HEK293. The format is binding. The protocol: (§1) Each tracer candidate was screened across the entire library of HiBiT-GPCR constructs using NanoBRET as the detection modality. As depicted in Figure 4A, the specificity of interactions was evaluated through decrease in BRET due to competitive displacement of a bound tracer by excess parental compound. Each tracer was analyzed for binding to each HiBiT-GPCR fusion in the absence and in the presence of competing parental compound. Briefly, HEK293 cells were transfected with HiBiT-GPCR constructs diluted into promoterless DNA to reduce expression and maximize translocation to the cell surface. Each tracer candidate was then screened at concentrations of 1 μM and 0.1 μM across cells expressing these fusions. Cells were treated for 1.5 h with tracer either alone or in the presence of 20 μM competing parental compound (i.e., control). BRET was measured upon addition of purified LgBiT and subsequent complementation with HiBiT genetically fused to a GPCR. The specificity of interactions was assessed through a decrease in BRET signal due to competitive displacement of the bound tracer. To further gauge the robustness of these interactions, the fold response over the control (i.e., BRETtracer/BRETcontrol) was calculated. We chose a 1.5-fold response, which translates to ≥7-fold signal over noise as the minimal threshold required to score an interaction as positive. […]. Below we highlight the screening results obtained for our exemplary fluorescent tracers based on Clozapine, Amitriptyline and AZD1283.
(§2) HiBiT-GPCR DNA constructs were diluted in 10 mM Tris pH 8 to a final concentration of 0.01 μg/μL, arrayed in 96-well plates and stored at −20 °C. For transfection, HEK293 cells were suspended in Opti-MEM (without phenol red) supplemented with 2% fetal bovine serum (Seradigm) and 100 units/mL penicillin–streptomycin (Gibco) at a final concentration of 220,000 cells/mL and dispensed into white 96-well plates at 90 μL/well. Subsequent transfections and screens were carried using an Agilent Bravo Automated Liquid Handling Platform. First, the 96-well HiBiT DNA arrays were diluted 25-fold in Opti-MEM (without serum or phenol red) to a final concentration of 0.0004 μg/μL and 20 μL of the diluted DNAs were transferred into new 96-well plates. Next, promoterless carrier DNA (1 μg/μL) was diluted 25-fold (0.04 μg/μL) and then dispensed into the diluted arrays at 20 μL/well. Following brief mixing, Viafect transfection reagent (Promega) diluted 16-fold into Opti-MEM was dispensed into the plates at 40 μL/well. After mixing by pipetting, plates were incubated for 10 min on the pipetting station deck. The DNA-transfection reagent complexes were then added to plates containing cells. To facilitate the screen, 10 μL of DNA-transfection reagent complexes were added in duplicates to the top 4 and bottom 4 rows, resulting in two identical 48-well arrays per plate. Plates with transfected cells were incubated for 18–20 h at 37 °C/5% CO2. A screen of each tracer across the entire library using two different concentrations requires duplicate plates of transfected cells. Depending on the number of tracers being screened, transfections can be scaled up using the same ratios. The next day, for each tracer, four 20× screening solutions in tracer dilution buffer (Promega) were prepared: two duplicates at final concentration of 20 μM and two duplicates at a final concentration of 2 μM. A competing unmodified compound was added to one of each duplicate at a final concentration of 400 μM. The four resulting solutions were diluted 4-fold in Opti-MEM without serum or phenol red to generate 5× solutions (5 µM and 0.5 µM tracer +/− 100 μM competing compound). To screen the library, a BioTek MultiFlo FX liquid dispenser was used to dispense 22.5 µL of tracer solution to the top 4 rows and 22.5 µL tracer + competing compound solution to the 4 bottom rows. Plates were briefly mixed on an orbital shaker and incubated for 1.5 h at room temperature. […]

The target in another assay is T2, PTGER2 (Homo sapiens, UniProt P43116).
T2 construct: purchased Promega (in-house HiBiT-GPCR construct library, NanoBRET)
As to the kind of experiment: NanoBRET screen HiBiT-PTGER2 in HEK293. The format is binding. The protocol:
as §1, §2

T2 sequence (P43116 whole entry): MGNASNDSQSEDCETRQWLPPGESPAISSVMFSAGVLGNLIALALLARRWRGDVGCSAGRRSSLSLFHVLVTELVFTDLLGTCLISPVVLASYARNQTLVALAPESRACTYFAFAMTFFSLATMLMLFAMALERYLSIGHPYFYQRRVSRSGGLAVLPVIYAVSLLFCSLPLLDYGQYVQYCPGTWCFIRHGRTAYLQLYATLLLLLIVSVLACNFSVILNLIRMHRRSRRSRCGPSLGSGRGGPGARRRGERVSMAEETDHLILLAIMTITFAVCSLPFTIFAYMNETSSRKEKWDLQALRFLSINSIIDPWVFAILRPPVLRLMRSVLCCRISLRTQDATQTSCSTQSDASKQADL

Consider `O=C(CCOCCOCCOCCOCCNC(=O)CCc1ccc2n1[B-](F)(F)[N+]1=C(c3ccc[nH]3)C=CC1=C2)NCCCN1CCN(C2=Nc3ccccc3Oc3ccc(Cl)cc32)CC1` [Loxapine-a-2-NB590], for which the “NanoBRET Fold Response” value at FPR1 (FPR1, tracer 0.1μM) was determined as 0.99; on FPR1 (FPR1, tracer 1μM), 1.10; on PTGER2 (PTGER2, tracer 0.1μM) it was 1.03; on PTGER2 (PTGER2, tracer 1μM), 1.03.

Turning to `CCCn1c(=O)c2[nH]c(-c3ccc(OCC(=O)NCCNC(=O)CCOCCNC(=O)c4ccc(CNC(=O)CCc5ccc6n5[B-](F)(F)[N+]5=C(c7ccc[nH]7)C=CC5=C6)cc4)cc3)nc2n(CCC)c1=O` [XAC-3-NB590], the “NanoBRET Fold Response” value was found to be 1.15 on FPR1 (FPR1, tracer 0.1μM); 1.10 on FPR1 (FPR1, tracer 1μM); 1.04 on PTGER2 (PTGER2, tracer 0.1μM); 1.09 on PTGER2 (PTGER2, tracer 1μM).

For `CN(C)CCC=C1c2ccccc2CCc2ccc(C(=O)NCCNC(=O)CCOCCOCCOCCOCCNC(=O)CCc3ccc4n3[B-](F)(F)[N+]3=C(c5ccc[nH]5)C=CC3=C4)cc21` [Amitriptyline-a-2-NB590], the “NanoBRET Fold Response” value was 1.02 on FPR1 (tracer at 0.1μM) and 1.04 at FPR1 (tracer at 1μM).

As to `COc1ccccc1N1CCN(CCCCN2C(=O)c3ccc(CNC(=O)CCOCCOCCOCCOCCNC(=O)CCc4ccc5n4[B-](F)(F)[N+]4=C(c6ccc[nH]6)C=CC4=C5)cc3C2=O)CC1` [NAN-190-2-NB590], the “NanoBRET Fold Response” value on FPR1 (FPR1, tracer 0.1μM) was 1.09; at FPR1 (FPR1, tracer 1μM) it was 1.04; at PTGER2 (PTGER2, tracer 0.1μM) it was 1.02; on PTGER2 (PTGER2, tracer 1μM), 0.98.

Consider `O=C(CCc1ccc2n1[B-](F)(F)[N+]1=C(c3ccc[nH]3)C=CC1=C2)NCc1ccc(C(=O)NCCOCCOCCNCC(O)COc2cccc3ccccc23)cc1` (stereo not drawn) [Propranolol-3-NB590], for which the “NanoBRET Fold Response” value on FPR1 (FPR1, 0.1μM) is given as 1.02; on FPR1 (FPR1, 1μM), 0.98; on PTGER2 (PTGER2, 0.1μM) it was 1.00; at PTGER2 (PTGER2, 1μM) it was 1.02.

On to `COc1ccccc1N1CCN(CCCCN2C(=O)c3ccc(CNC(=O)CCOCCNC(=O)c4ccc(CNC(=O)CCc5ccc6n5[B-](F)(F)[N+]5=C(c7ccc[nH]7)C=CC5=C6)cc4)cc3C2=O)CC1` [NAN-190-3-NB590], for which the “NanoBRET Fold Response” value on FPR1 (FPR1, tracer 0.1μM) is 0.95; at FPR1 (FPR1, tracer 1μM), 1.09; at PTGER2 (PTGER2, tracer 0.1μM), 1.06; on PTGER2 (PTGER2, tracer 1μM), 1.00.

With `O=C(CCc1ccc2n1[B-](F)(F)[N+]1=C(c3ccc[nH]3)C=CC1=C2)NCc1ccc(C(=O)NCCOCCC(=O)N[C@@H]2CC[C@@]3(O)[C@H]4Cc5ccc(O)c6c5[C@@]3(CCN4CC3CC3)[C@H]2O6)cc1` [Naltrexone-3-NB590], the “NanoBRET Fold Response” value was determined as 0.90 on FPR1 (FPR1, tracer 0.1μM); 0.98 at FPR1 (FPR1, tracer 1μM); 1.04 on PTGER2 (PTGER2, tracer 0.1μM); 1.00 at PTGER2 (PTGER2, tracer 1μM).

For the compound `CCOC(=O)c1cc(C#N)c(N2CCC(C(=O)NS(=O)(=O)Cc3ccccc3/C=C/C(=O)NCCNC(=O)CCc3ccc4n3[B-](F)(F)[N+]3=C(c5ccc[nH]5)C=CC3=C4)CC2)nc1C` [AZD1283-1-NB590], the “NanoBRET Fold Response” value on FPR1 (FPR1, 0.1μM) stood at 1.09; on FPR1 (FPR1, 1μM) it was 1.05; at PTGER2 (PTGER2, 0.1μM), 1.00; on PTGER2 (PTGER2, 1μM), 1.04.

As to `COc1ccc2[nH]c(-c3ccc(CNC(=O)CCOCCOCCOCCOCCNC(=O)CCc4ccc5n4[B-](F)(F)[N+]4=C(c6ccc[nH]6)C=CC4=C5)cc3)c(CCNC(C)=O)c2n1` [AzomelatoninICO9-2-NB590], the “NanoBRET Fold Response” value on FPR1 (0.1μM tracer) was determined as 1.02; on FPR1 (1μM tracer) it was 0.90; on PTGER2 (0.1μM tracer), 1.01; on PTGER2 (1μM tracer) it was 0.97.

For `CC(C)N(CC[C@H](c1ccccc1)c1cc(CCNC(=O)CCOCCOCCOCCOCCNC(=O)CCc2ccc3n2[B-](F)(F)[N+]2=C(c4ccc[nH]4)C=CC2=C3)ccc1O)C(C)C` [Tolterodine-2-NB590], the “NanoBRET Fold Response” value on FPR1 (FPR1, tracer 0.1μM) came out at 1.07; at FPR1 (FPR1, tracer 1μM), 0.85; on PTGER2 (PTGER2, tracer 0.1μM) it was 1.00; on PTGER2 (PTGER2, tracer 1μM), 1.01.

With `CN1CCN(C2=Nc3cc(Cl)ccc3N(CC(=O)NCCOCCOCCOCCOCCNC(=O)CCc3ccc4n3[B-](F)(F)[N+]3=C(c5ccc[nH]5)C=CC3=C4)c3ccccc32)CC1` [Clozapine-c-2-NB590], the “NanoBRET Fold Response” value was 0.98 on FPR1 (FPR1, 0.1μM tracer); 1.04 at FPR1 (FPR1, 1μM tracer); 0.98 at PTGER2 (PTGER2, 0.1μM tracer); 1.09 on PTGER2 (PTGER2, 1μM tracer).

Turning to `N#CN=C(NCCCOc1cccc(CN2CCCCC2)c1)NCCNC(=O)CCOCCOCCOCCOCCNC(=O)CCc1ccc2n1[B-](F)(F)[N+]1=C(c3ccc[nH]3)C=CC1=C2` [Aminopotentidine-2-NB590], the “NanoBRET Fold Response” value at FPR1 (FPR1, tracer 0.1μM) is recorded as 0.99; at FPR1 (FPR1, tracer 1μM), 0.97; on PTGER2 (PTGER2, tracer 0.1μM) it was 0.99; at PTGER2 (PTGER2, tracer 1μM), 1.03.

Regarding `COc1ccc2c(n1)c(CCNC(C)=O)cn2CCNC(=O)CCc1ccc2n1[B-](F)(F)[N+]1=C(c3ccc[nH]3)C=CC1=C2` [Azamelatonin-1-NB590], the “NanoBRET Fold Response” value is 0.96 on FPR1 (0.1μM tracer), 1.09 on FPR1 (1μM tracer), 1.01 on PTGER2 (0.1μM tracer) and 1.07 at PTGER2 (1μM tracer).

For the compound `CC(C)N(CC[C@H](c1ccccc1)c1cc(CCNC(=O)c2ccc(CNC(=O)CCc3ccc4n3[B-](F)(F)[N+]3=C(c5ccc[nH]5)C=CC3=C4)cc2)ccc1O)C(C)C` [Tolterodine-BZ-NB590], the “NanoBRET Fold Response” value at FPR1 (FPR1, tracer 0.1μM) stood at 1.02; on FPR1 (FPR1, tracer 1μM) it was 1.02; on PTGER2 (PTGER2, tracer 0.1μM) it was 1.04; on PTGER2 (PTGER2, tracer 1μM), 0.97.

In the case of `O=C(CCc1ccc2n1[B-](F)(F)[N+]1=C(c3ccc[nH]3)C=CC1=C2)NCCOCCOCCNC(=O)OCCOCCN1CCN(C2=Nc3ccccc3Sc3ccccc32)CC1` [Quetiapine-a-2-NB590], the “NanoBRET Fold Response” value on FPR1 (FPR1, tracer 0.1μM) amounted to 1.05; at FPR1 (FPR1, tracer 1μM) it was 0.92; on PTGER2 (PTGER2, tracer 0.1μM), 0.96; at PTGER2 (PTGER2, tracer 1μM), 1.05.

In the case of `Cc1cc2c(s1)Nc1ccccc1N=C2N1CCN(CCCNC(=O)CCOCCOCCOCCOCCNC(=O)CCc2ccc3n2[B-](F)(F)[N+]2=C(c4ccc[nH]4)C=CC2=C3)CC1` [Olanzapine-a-2-NB590], the “NanoBRET Fold Response” value on FPR1 (FPR1, tracer 0.1μM) was found to be 1.09; at FPR1 (FPR1, tracer 1μM) it was 1.01; at PTGER2 (PTGER2, tracer 0.1μM) it was 1.03; at PTGER2 (PTGER2, tracer 1μM), 0.98.

With `CN(C)CCC=C1c2ccccc2CCc2ccc(C(=O)NCCNC(=O)CCOCCOCCOCCOCCNC(=O)CCc3ccc4n3[B-](F)(F)[N+]3=C(c5ccc[nH]5)C=CC3=C4)cc21` [Amitriptyline-b-2-NB590], the “NanoBRET Fold Response” value on FPR1 (tracer at 0.1μM) stood at 0.96; on FPR1 (tracer at 1μM, listed as amitriptyline-b-2-NB590) it was 1.02; at PTGER2 (tracer at 0.1μM), 1.01; at PTGER2 (tracer at 1μM) it was 1.01.
